Results published in patent US8575158B2, “1-phenyl-substituted heterocyclyl derivatives and their use as prostaglandin D2 receptor modulators” (Actelion Pharmaceuticals Ltd., priority 2010, dated 2013).

Biological target: T1, hCRTH2 receptor (Homo sapiens, UniProt Q9Y5Y4)
T1 construct: expressed in transfected cells; host or cells: HEK293
T1 sequence (Q9Y5Y4 1-395): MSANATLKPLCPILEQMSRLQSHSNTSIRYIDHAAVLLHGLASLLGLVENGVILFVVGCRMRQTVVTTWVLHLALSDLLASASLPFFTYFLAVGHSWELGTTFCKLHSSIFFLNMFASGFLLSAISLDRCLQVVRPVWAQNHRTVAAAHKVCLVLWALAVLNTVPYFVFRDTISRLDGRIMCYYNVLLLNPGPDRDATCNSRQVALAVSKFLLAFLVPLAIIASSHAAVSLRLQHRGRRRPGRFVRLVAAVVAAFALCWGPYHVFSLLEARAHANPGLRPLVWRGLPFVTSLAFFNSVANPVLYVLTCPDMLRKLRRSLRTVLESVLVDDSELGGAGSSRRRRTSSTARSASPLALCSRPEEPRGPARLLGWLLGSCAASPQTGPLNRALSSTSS
Assay: Radioligand displacement assay (3H-PGD2) on hCRTH2 receptor membranes
Format: binding
Details: antagonistic activity

[1] = 3H-PGD2 displacement on HEK293-hCRTH2 membrane fragments
[2] = 3H-PGD2 radioligand displacement, HEK293-hCRTH2 membranes

Row | SMILES | IC50 [1] [nM] | IC50 [2] [nM]
1 | CS(=O)(=O)Nc1cccc2c1CCN(C(=O)OCc1ccccc1)C2c1cc(F)ccc1OCC(=O)O (racemic) [Example 222, (±)-1-(2-Carboxymethoxy-5-fluoro-phenyl)-5-methanesulfonylamino-3,4-dihydro-1H-isoquinoline-2-carboxylic acid benzyl ester] | 141 | –
2 | O=C(O)COc1ccc(Cl)cc1C1c2ccccc2CCN1C(=O)COc1ccccc1 (racemic) [Example 409] | – | 74
3 | CCn1nc(C)cc1CCOC(=O)N1CCc2c(ccc(F)c2F)[C@H]1c1cc(Cl)ccc1OCC(=O)O [Example 314, (S)-1-(2-Carboxymethoxy-5-chloro-phenyl)-5,6-difluoro-3,4-dihydro-1H-isoquinoline-2-carboxylic acid 2-(2-ethyl-5-methyl-2H-pyrazol-3-yl)-ethyl ester] | – | 9.8
4 | O=C(O)COc1ccc(Cl)cc1[C@@H]1c2ccccc2CCN1C(=O)OCc1ccccc1Cl [Example 174, (S)-1-(2-Carboxymethoxy-5-chloro-phenyl)-3,4-dihydro-1H-isoquinoline-2-carboxylic acid 2-chloro-benzyl ester] | 5.75 | –
5 | O=C(O)COc1ccc(Cl)cc1C1c2ccccc2CCN1C(=O)OCc1c(Cl)cccc1Cl (racemic) [Example 243] | 6.48 | –
6 | O=C(O)COc1ccc(Cl)cc1C1c2ccc(F)cc2CCN1C(=O)CCOc1ccc(F)cc1 (racemic) [Example 438] | – | 91.1
7 | COc1ccccc1COC(=O)N1CCc2ccccc2[C@H]1c1cc(Cl)ccc1OCC(=O)O [Example 356, (S)-1-(2-Carboxymethoxy-5-chloro-phenyl)-3,4-dihydro-1H-isoquinoline-2-carboxylic acid 2-methoxy-benzyl ester] | – | 3.58
8 | O=C(O)COc1ccc(Cl)cc1C1c2ccccc2CCN1C(=O)CCCN1CCCC1=O (racemic) [Example 440] | – | 55.7
9 | N#Cc1ccc(OCC(=O)O)c(C2c3cc(F)cc(F)c3CCN2C(=O)OCc2ccccc2)c1 (racemic) [Example 44, (±)-1-(2-Carboxymethoxy-5-cyano-phenyl)-5,7-difluoro-3,4-dihydro-1H-isoquinoline-2-carboxylic acid benzyl ester] | 8.34 | –
10 | O=C(O)COc1ccc(F)cc1C1c2ccccc2CCN1C(=O)Cc1ccc(-c2ccccc2)cc1 (racemic) [Example 60] | 577 | –
11 | Cc1ccc([C@@H]2C[C@H]2C(=O)N2CCc3ccccc3C2c2cc(Cl)ccc2OCC(=O)O)cc1 (mixture of isomers) [Example 420] | – | 103
12 | O=C(O)COc1ccc(Cl)cc1C1c2ccc(Cl)c(Cl)c2CN1C(=O)OCc1ccccc1 (racemic) [Example 558] | – | 16.9
13 | O=C(O)COc1ccc(Cl)cc1C1c2ccccc2CCN1C(=O)OCc1ccccc1C(F)(F)F (racemic) [Example 236] | 5.59 | –
14 | COc1ccc(OCC(=O)O)c(C2c3ccccc3CCN2C(=O)OCc2ccccc2)c1 (racemic) [Example 24, (±)-1-(2-Carboxymethoxy-5-methoxy-phenyl)-3,4-dihydro-1H-isoquinoline-2-carboxylic acid benzyl ester] | 83.7 | –
15 | O=C(O)COc1ccc(Cl)cc1[C@@H]1c2ccccc2CCN1C(=O)OCc1noc2ccccc12 [Example 298, (S)-1-(2-Carboxymethoxy-5-chloro-phenyl)-3,4-dihydro-1H-isoquinoline-2-carboxylic acid benzo[d]isoxazol-3-ylmethyl ester] | – | 2.49
16 | Cc1nn(CCC(=O)N2Cc3ccccc3C2c2cc(Cl)ccc2OCC(=O)O)c2cccc(Cl)c12 (single isomer, unassigned) [Example 529] | – | 78
17 | NC(=O)c1ncccc1OCC(=O)N1CCc2ccccc2C1c1cc(Cl)ccc1OCC(=O)O (racemic) [Example 479] | – | 199
18 | Cc1cnc(COC(=O)N2CCc3c(ccc(F)c3F)[C@H]2c2cc(Cl)ccc2OCC(=O)O)s1 [Example 301, (S)-1-(2-Carboxymethoxy-5-chloro-phenyl)-5,6-difluoro-3,4-dihydro-1H-isoquinoline-2-carboxylic acid 5-methyl-thiazol-2-ylmethyl ester] | – | 4.55
19 | Cc1nc(COC(=O)N2CCc3cc(F)ccc3[C@H]2c2cc(Cl)ccc2OCC(=O)O)cs1 [Example 329, (S)-1-(2-Carboxymethoxy-5-chloro-phenyl)-6-fluoro-3,4-dihydro-1H-isoquinoline-2-carboxylic acid 2-methyl-thiazol-4-ylmethyl ester] | – | 5.9
20 | O=C(O)COc1ccc(F)cc1C1c2cccc(Cl)c2CCN1C(=O)OCc1ccccc1 (racemic) [Example 38, (±)-1-(2-Carboxymethoxy-5-fluoro-phenyl)-5-chloro-3,4-dihydro-1H-isoquinoline-2-carboxylic acid benzyl ester] | 20.8 | –
21 | Cc1cccc(CCC(=O)N2CCc3ccccc3C2c2cc(Cl)ccc2OCC(=O)O)n1 (racemic) [Example 408] | – | 177
22 | Cc1cc(COC(=O)N2CCc3cc(F)ccc3[C@H]2c2cc(Cl)ccc2OCC(=O)O)on1 [Example 330, (S)-1-(2-Carboxymethoxy-5-chloro-phenyl)-6-fluoro-3,4-dihydro-1H-isoquinoline-2-carboxylic acid 3-methyl-isoxazol-5-ylmethyl ester] | – | 10.6
